Reference: US20210346459A1, “Application of Dalargin for the prevention of VRIs and prevention of the development of complications during VRIs” (priority 2020, published 2021)
In brackets after ≈: the same amount, converted by molar mass. Read-outs that look alike come from different tables or passages of the source. Marks after values point to notes of the source that are not given here.

What was measured:
human adenovirus 5 [1] = test: organism not typed; settings: Vero
in vitro = settings: African green monkey
human adenovirus 5 [2] = test system: human adenovirus 5
[3] = test system: influenza virus A/California/04/2009; assay type: in vivo, mice
MDCK = test: 50% cytotoxic concentration, cell line used for influenza virus; settings: PR8 (influenza virus) section
[4] = test system: influenza virus A/Puerto Rico/8/34 (H1N1)
[5] = test system: influenza virus A/Puerto Rico/8/34 (H1N1); assay type: in vivo, Balb/c mice; settings: Group 2: Tamiflu 20 mg/kg once a day intragastrically
mu receptors = mu receptors (Homo sapiens, UniProt P35372); settings: metabolite of Dalargin; cited from earlier work
Chain of mu receptors (P35372 whole entry): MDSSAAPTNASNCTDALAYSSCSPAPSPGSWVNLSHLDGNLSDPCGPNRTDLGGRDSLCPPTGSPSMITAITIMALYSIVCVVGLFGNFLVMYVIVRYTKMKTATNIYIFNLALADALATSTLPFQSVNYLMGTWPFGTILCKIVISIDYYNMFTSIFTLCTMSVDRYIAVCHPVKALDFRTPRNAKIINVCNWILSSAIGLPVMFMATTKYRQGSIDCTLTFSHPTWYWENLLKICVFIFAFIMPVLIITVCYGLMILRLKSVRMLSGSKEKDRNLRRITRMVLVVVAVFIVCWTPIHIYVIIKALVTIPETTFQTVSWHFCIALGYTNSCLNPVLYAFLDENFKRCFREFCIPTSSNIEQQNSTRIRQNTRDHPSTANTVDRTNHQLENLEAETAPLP

[6] = Group 3: Arbidol 130 mg/kg intragastrically once a day, therapeutic
[7] = Group 3: Arbidol 130 mg/kg intragastrically once a day, therapeutic, 30 animals
[8] = Group 2: Ingavirin 15 mg/kg intragastrically once a day, therapeutic
[9] = Group 2: Ingavirin 15 mg/kg intragastrically once a day, therapeutic, 30 animals

Molecule: Nc1nc2c(ncn2COCCO)c(=O)[nH]1 [Aciclovir]
- IC50 (human adenovirus 5 [1]): > 30 µg/mL
- CC50 (in vitro): > 30 µg/mL
- SI (human adenovirus 5 [2]; CC50/IC50, Ad5 (adenovirus)): 1
- Antiviral properties (in words) (human adenovirus 5 [2]; adenovirus, Vero): did not exhibit antiviral properties

Molecule: CCOC(=O)c1c(CSc2ccccc2)n(C)c2cc(Br)c(O)c(CN(C)C)c12 [Arbidol]
- Mortality, % [3, 6]: 70.00%
- Protective index, % [3, 6]: 27.59%
- Mortality by day 5 [3, 7]: 2
- Mortality by day 6 [3, 7]: 2
- Mortality by day 7 [3, 7]: 7
- Mortality by day 8 [3, 7]: 5
- Mortality by day 9 [3, 7]: 3
- Mortality by day 10 [3, 7]: 2
- Residue [3, 7]: 9

Molecule: O=C(O)CCCC(=O)NCCc1c[nH]cn1 [Ingavirin]
- Mortality, % [3, 8]: 53.33%
- Protective index, % [3, 8]: 44.83%
- Mortality by day 6 [3, 9]: 4
- Mortality by day 7 [3, 9]: 6
- Mortality by day 8 [3, 9]: 3
- Mortality by day 9 [3, 9]: 2
- Mortality by day 10 [3, 9]: 1
- Residue [3, 9]: 14
- Mortality by day 5 ([3]; mouse, in vivo): 3
- Mortality by day 6 ([3]; mouse, in vivo): 4
- Mortality by day 7 ([3]; mouse, in vivo): 4
- Mortality by day 8 ([3]; mouse, in vivo): 7
- Mortality by day 9 ([3]; mouse, in vivo): 4
- Mortality by day 10 ([3]; mouse, in vivo): 2
- Mortality, % ([3]; mouse, in vivo): 80.00%
- Protective index, % ([3]; mouse, in vivo): 17.24%
- Residue ([3]; mouse, in vivo): 6

Molecule: CC(N)C12CC3CC(CC(C3)C1)C2 (stereo not shown) [Remantadin]
- CC50 (MDCK): 64 µg/mL (≈ 357 µM)
- SI ([4]; CC50/IC50, PR8 (influenza virus)): 5
- IC50 ([4]; PR8 (influenza virus), MDCK): 11 µg/mL (≈ 61.3 µM)
- Antiviral properties (in words) ([4]; influenza virus, MDCK): did not exhibit antiviral properties

Molecule: CCOC(=O)C1=C[C@@H](OC(CC)CC)[C@H](NC(C)=O)[C@@H](N)C1 [Tamiflu, oseltamivir]
- Mortality, % [5]: 10.00%
- Protective index, % [5]: 88.46%
- Mortality by day 9 ([5]; 30 animals): 2
- Mortality by day 10 ([5]; 30 animals): 1
- Residue ([5]; 30 animals): 27*

Molecule: Tyr-D-Ala-Gly-Phe
- Affinity to mu receptors (mu receptors): exhibits affinity to mu receptors
